In brackets after ≈: the same amount, converted by molar mass. A value given as a limit tells only on which side of the number the result lay.

These results are taken from ChEMBL document CHEMBL4118066, “QSAR-driven design, synthesis and discovery of potent chalcone derivatives with antitubercular activity” (Eur J Med Chem, 2017).

The subject of data set [1] is Mycobacteroides abscessus. Kind of data set: Antimycobacterial activity against Mycobacterium abscessus ATCC 19977 after 7 days under normoxic condition by microplate Alamar blue assay. In kind it is functional. As to conditions: ATCC 19977, 168 h. In general terms: Alamar Blue is a resazurin reagent that responds to reducing activity.
A further data set concerns Mycobacterium avium. The data set is described as follows: Antimycobacterial activity against Mycobacterium avium ATCC 15769 after 7 days under normoxic condition by microplate Alamar blue assay. The conditions noted are these: ATCC 15769, 168 h. In kind it is functional.
The next data set concerns Mycobacterium marinum. The data set is described as follows: Antimycobacterial activity against Mycobacterium marinum ATCC 927 after 7 days under normoxic condition by microplate Alamar blue assay. In kind it is functional. The conditions noted are these: ATCC 927, 168 h.
The subject of the next data set is Mycobacterium kansasii. The data set is described as follows: Antimycobacterial activity against Mycobacterium kansasii ATCC 12478 after 7 days under normoxic condition by microplate Alamar blue assay. In kind it is functional. As to conditions: ATCC 12478, 168 h.
The test system of a further data set is Staphylococcus aureus. The data set is described as follows: Antibacterial activity against Staphylococcus aureus ATCC 29213 after 16 to 20 hrs. In kind it is functional.
A short description of the next data set: in vitro. As to conditions: monkey, Vero cells.
A further data set concerns Escherichia coli. Kind of data set: Antibacterial activity against Escherichia coli ATCC 25922 after 16 to 20 hrs. In kind it is functional.
A further data set concerns Candida albicans. Kind of data set: Antifungal activity against Candida albicans ATCC 90028 after 36 to 48 hrs. In kind it is functional.
Data set [2] has as its system Mycobacterium tuberculosis. The data set is described as follows: Antitubercular activity against Mycobacterium tuberculosis H37Rv ATCC 27294 treated for 10 days under hypoxic condition followed by 28 hrs of normoxic recovery. In kind it is functional.
For data set [3], the system named is Mycolicibacterium smegmatis. The data set is described as follows: Antimycobacterial activity against Mycobacterium smegmatis ATCC MC2155 after 7 days under normoxic condition by microplate Alamar blue assay. In kind it is functional. The conditions noted are these: str. MC2 155, 168 h.
A further data set relates to Mycobacteroides chelonae. The data set is described as follows: Antimycobacterial activity against Mycobacterium chelonae ATCC 35752 after 7 days under normoxic condition by microplate Alamar blue assay. In kind it is functional. As to conditions: ATCC 35752, 168 h.
For data set [4], the system named is Mycobacterium tuberculosis. Kind of data set: microbe, parasite or virus in culture. In kind it is functional. As to conditions: H37Rv ATCC 27294, 168 h.
Description: Antitubercular activity against Mycobacterium tuberculosis H37Rv ATCC 27294 after 7 days under normoxic condition by microplate Alamar blue assay

Description for in vitro: Selectivity index, ratio of IC50 for African green monkey Vero cells to MIC90 for Mycobacterium tuberculosis H37Rv ATCC 27294 under normoxic condition

`CCCCc1ccc(C(=O)/C=C/c2ccc([N+](=O)[O-])s2)cc1`: the MIC90 was above 10 µM in data set [1]; 2.14 µM (≈ 0.675 µg/mL) against Mycobacterium avium; above 10 µM in the data set with Mycobacterium marinum; 1.73 µM (≈ 0.546 µg/mL) in the data set with Mycobacterium kansasii; above 10 µM against Staphylococcus aureus; above 10 µM in the data set on Escherichia coli. Moreover, the MIC90 in the data set with Candida albicans was above 10 µM; in data set [2], 5.56 µM (≈ 1.75 µg/mL); in data set [3], above 10 µM; against Mycobacteroides chelonae it was above 10 µM; in [4], 0.54 µM (≈ 0.17 µg/mL). In addition, the selectivity ratio in “in vitro” worked out at 81.
Turning to `COc1ccc(/C=C/C(=O)c2cccc(Br)c2)cc1`, the MIC90 is above 10 µM in data set [1]; 9.82 µM (≈ 3.11 µg/mL) against Mycobacterium avium; above 10 µM against Mycobacterium marinum; 9.21 µM (≈ 2.92 µg/mL) in the data set on Mycobacterium kansasii; above 10 µM in the data set on Staphylococcus aureus; above 10 µM against Escherichia coli. Moreover, the MIC90 was above 10 µM in the data set on Candida albicans; 8.2 µM (≈ 2.6 µg/mL) in data set [2]; above 10 µM in data set [3]; above 10 µM against Mycobacteroides chelonae; 8.54 µM (≈ 2.71 µg/mL) in data set [4]. For the same compound, the selectivity ratio in the data set “in vitro” worked out at 11.
On to `CCCCc1ccc(C(=O)/C=C/c2ccc([N+](=O)[O-])o2)cc1`, for which the MIC90 in data set [1] was above 10 µM; in the data set on Mycobacterium avium it was 3.07 µM (≈ 0.919 µg/mL); against Mycobacterium marinum it was above 10 µM; in the data set on Mycobacterium kansasii, 0.58 µM (≈ 0.174 µg/mL); against Staphylococcus aureus, 2.23 µM (≈ 0.667 µg/mL); with Escherichia coli, above 10 µM. For the same compound, the MIC90 was above 10 µM with Candida albicans; 4.21 µM (≈ 1.26 µg/mL) in data set [2]; above 10 µM in data set [3]; above 10 µM in the data set on Mycobacteroides chelonae; 1.31 µM (≈ 0.392 µg/mL) in [4]. Moreover, in “in vitro”, the selectivity ratio worked out at 57.
With `O=C(/C=C/c1ccc([N+](=O)[O-])o1)c1ccc(-c2ccccc2)cc1`, the MIC90 was above 10 µM in data set [1]; 1.27 µM (≈ 0.406 µg/mL) in the data set on Mycobacterium avium; above 10 µM in the data set on Mycobacterium marinum; 0.49 µM (≈ 0.156 µg/mL) with Mycobacterium kansasii; above 10 µM against Staphylococcus aureus; above 10 µM against Escherichia coli. The MIC90 in the data set on Candida albicans was above 10 µM; in [2], 3.18 µM (≈ 1.02 µg/mL); in data set [3], above 10 µM; in the data set with Mycobacteroides chelonae, above 10 µM; in data set [4], 3.91 µM (≈ 1.25 µg/mL). The selectivity ratio in “in vitro” turned out to be 25.
For the compound `CSc1ccc(C(=O)/C=C/c2ccc([N+](=O)[O-])s2)cc1`, the MIC90 in [1] is above 10 µM; in the data set with Mycobacterium avium, 6.89 µM (≈ 2.1 µg/mL); in the data set with Mycobacterium marinum, above 10 µM; with Mycobacterium kansasii it was 3.86 µM (≈ 1.18 µg/mL); against Staphylococcus aureus, above 10 µM; against Escherichia coli, above 10 µM. The MIC90 against Candida albicans is above 10 µM; in data set [2], 5.96 µM (≈ 1.82 µg/mL); in [3], above 10 µM; against Mycobacteroides chelonae it was above 10 µM; in data set [4] it was 0.45 µM (≈ 0.137 µg/mL). Also, in the data set “in vitro”, the selectivity ratio stood at 222.
For `CSc1ccc(C(=O)/C=C/c2ccc([N+](=O)[O-])o2)cc1`, the MIC90 was above 10 µM in data set [1]; 1.39 µM (≈ 0.402 µg/mL) against Mycobacterium avium; above 10 µM with Mycobacterium marinum; 0.3 µM (≈ 0.0868 µg/mL) with Mycobacterium kansasii; 0.58 µM (≈ 0.168 µg/mL) with Staphylococcus aureus; above 10 µM with Escherichia coli. The MIC90 in the data set with Candida albicans is above 10 µM; in data set [2] it was 5.07 µM (≈ 1.47 µg/mL); in data set [3] it was 4.81 µM (≈ 1.39 µg/mL); in the data set on Mycobacteroides chelonae, 4.66 µM (≈ 1.35 µg/mL); in data set [4] it was 0.66 µM (≈ 0.191 µg/mL). Moreover, in “in vitro”, the selectivity ratio stood at 61.
For `COc1ccc(/C=C/C(=O)c2cccc(I)c2)cc1`, the MIC90 is above 10 µM in data set [1]; 9.64 µM (≈ 3.51 µg/mL) in the data set with Mycobacterium avium; above 10 µM in the data set on Mycobacterium marinum; 9.4 µM (≈ 3.42 µg/mL) in the data set with Mycobacterium kansasii; above 10 µM against Staphylococcus aureus; above 10 µM against Escherichia coli. For the same compound, the MIC90 in the data set with Candida albicans was above 10 µM; in [2], above 10 µM; in data set [3], above 10 µM; in the data set with Mycobacteroides chelonae it was above 10 µM; in [4] it was 4.9 µM (≈ 1.78 µg/mL). Moreover, the selectivity ratio in the data set “in vitro” was determined as 20.
Take `O=C(/C=C/c1ccc([N+](=O)[O-])o1)c1ccc(C2CCCCC2)cc1`: the MIC90 against Staphylococcus aureus was above 10 µM; in the data set with Escherichia coli it was above 10 µM; against Candida albicans, above 10 µM; in data set [2], 3.33 µM (≈ 1.08 µg/mL); in [3], above 10 µM; in [4] it was 0.81 µM (≈ 0.264 µg/mL). Also, the selectivity ratio in “in vitro” worked out at 122.
Regarding `O=C(/C=C/c1ccc([N+](=O)[O-])s1)c1ccc(-n2ccnc2)cc1`, the MIC90 is 4.7 µM (≈ 1.53 µg/mL) in [1]; 2.1 µM (≈ 0.683 µg/mL) with Mycobacterium avium; above 10 µM in the data set on Mycobacterium marinum; 0.56 µM (≈ 0.182 µg/mL) with Mycobacterium kansasii; 0.28 µM (≈ 0.0911 µg/mL) in the data set with Staphylococcus aureus; above 10 µM with Escherichia coli. Besides, the MIC90 is above 10 µM with Candida albicans; 1.73 µM (≈ 0.563 µg/mL) in data set [2]; 4.39 µM (≈ 1.43 µg/mL) in data set [3]; 1.63 µM (≈ 0.53 µg/mL) against Mycobacteroides chelonae; 0.19 µM (≈ 0.0618 µg/mL) in [4]. In addition, in “in vitro”, the selectivity ratio was 225.
With `O=C(/C=C/c1ccc([N+](=O)[O-])o1)c1ccc(I)cc1`, the MIC90 in data set [1] is above 10 µM; in the data set on Mycobacterium avium, 2.38 µM (≈ 0.878 µg/mL); in the data set with Mycobacterium marinum, above 10 µM; against Mycobacterium kansasii it was 0.59 µM (≈ 0.218 µg/mL); against Staphylococcus aureus it was above 10 µM; against Escherichia coli, above 10 µM. Further, the MIC90 in the data set with Candida albicans was above 10 µM; in data set [2], 4.12 µM (≈ 1.52 µg/mL); in [3], 4.62 µM (≈ 1.71 µg/mL); against Mycobacteroides chelonae it was above 10 µM; in data set [4], 0.6 µM (≈ 0.221 µg/mL). For the same compound, the selectivity ratio in “in vitro” was 166.
With `O=C(/C=C/c1ccc([N+](=O)[O-])o1)c1ccc(N2CCOCC2)cc1`, the MIC90 was 1.19 µM (≈ 0.391 µg/mL) against Staphylococcus aureus; above 10 µM in the data set on Escherichia coli; above 10 µM in the data set with Candida albicans; 9.85 µM (≈ 3.23 µg/mL) in data set [2]; above 10 µM in data set [3]; 0.81 µM (≈ 0.266 µg/mL) in [4]. Besides, the selectivity ratio in “in vitro” came to 123.
Turning to `CC(C)(C)c1ccc(C(=O)/C=C/c2ccc([N+](=O)[O-])s2)cc1`, the MIC90 in data set [1] is above 10 µM; against Mycobacterium avium, 1.08 µM (≈ 0.341 µg/mL); in the data set on Mycobacterium marinum it was above 10 µM; in the data set with Mycobacterium kansasii, 0.92 µM (≈ 0.29 µg/mL); with Staphylococcus aureus it was above 10 µM; against Escherichia coli, above 10 µM. In addition, the MIC90 is above 10 µM in the data set on Candida albicans; 4.18 µM (≈ 1.32 µg/mL) in data set [2]; above 10 µM in data set [3]; above 10 µM in the data set on Mycobacteroides chelonae; 0.22 µM (≈ 0.0694 µg/mL) in data set [4]. For the same compound, in the data set “in vitro”, the selectivity ratio stood at 454.
Take `Cc1cccc(C(=O)/C=C/c2ccc([N+](=O)[O-])o2)c1`: the MIC90 in data set [1] is above 10 µM; in the data set with Mycobacterium avium it was 1.92 µM (≈ 0.494 µg/mL); with Mycobacterium marinum it was 2.39 µM (≈ 0.615 µg/mL); against Mycobacterium kansasii, 0.49 µM (≈ 0.126 µg/mL); in the data set with Staphylococcus aureus, 2.23 µM (≈ 0.574 µg/mL); in the data set on Escherichia coli it was above 10 µM. The MIC90 with Candida albicans is above 10 µM; in [2], 4.75 µM (≈ 1.22 µg/mL); in data set [3], above 10 µM; against Mycobacteroides chelonae, above 10 µM; in data set [4], 1.27 µM (≈ 0.327 µg/mL). In addition, in the data set “in vitro”, the selectivity ratio is 43.
As for `Cc1ccccc1C(=O)/C=C/c1ccc([N+](=O)[O-])o1`, the MIC90 in [1] is above 10 µM; with Mycobacterium avium it was 3.04 µM (≈ 0.782 µg/mL); against Mycobacterium marinum it was above 10 µM; in the data set on Mycobacterium kansasii, 1.16 µM (≈ 0.298 µg/mL); in the data set with Staphylococcus aureus, 1.09 µM (≈ 0.28 µg/mL); with Escherichia coli, above 10 µM. The MIC90 against Candida albicans is 6.36 µM (≈ 1.64 µg/mL); in data set [2], 4.59 µM (≈ 1.18 µg/mL); in data set [3], 9.5 µM (≈ 2.44 µg/mL); against Mycobacteroides chelonae, above 10 µM; in data set [4], 0.57 µM (≈ 0.147 µg/mL). Moreover, the selectivity ratio in the data set “in vitro” was found to be 41.
For the compound `O=C(/C=C/c1ccc([N+](=O)[O-])o1)c1cccc(Br)c1`, the MIC90 in [1] was above 10 µM; in the data set on Mycobacterium avium, 2.95 µM (≈ 0.95 µg/mL); in the data set with Mycobacterium marinum, above 10 µM; in the data set on Mycobacterium kansasii it was 1.65 µM (≈ 0.531 µg/mL); in the data set on Staphylococcus aureus it was 1.68 µM (≈ 0.541 µg/mL); with Escherichia coli, above 10 µM. The MIC90 is above 10 µM against Candida albicans; 5.65 µM (≈ 1.82 µg/mL) in data set [2]; 4.84 µM (≈ 1.56 µg/mL) in [3]; above 10 µM with Mycobacteroides chelonae; 1.32 µM (≈ 0.425 µg/mL) in data set [4]. Also, in the data set “in vitro”, the selectivity ratio stood at 52.
